Entries after “also recorded” stand apart in the source; their conditions may differ.
How the values were obtained:
Type in all cases: physicochemical
[1] = Relative humidity X-ray powder diffraction (RH-XRPD) of Crystal Form VIII
Experimental: Based on the above data, Crystal Form VIII was most likely to be a hydrate. […] Therefore, Crystal Form VIII was further characterized by RH-XRPD to confirm the hydrate crystal Form and to have the knowledge of the crystal Form transformation with the different RH.
The parameters of XRPD used in the test were as follows: • Tube: Cu/K-Alpha (λ=1.54179Å); • Generator: Voltage: 40 KV; Current: 40 mA; • Scan Scope: 3-40 deg; • Scan Speed: 10 deg/min.
About 100 mg of compound was evenly distributed to form a layer in a sample holder and transferred to a RH control component in which the relative humidity was controlled and adjusted by the ratio of dry/wet N2 blown.

[2] = Long-term stability study of crystal form VIII; settings: for Water content / XRPD (crystal form): 25 ± 2° C./60 ± 5% RH
Experimental: A long-term stability study has been carried out under condition of 25° C./60% RH for the crystal form VIII.

[3] = Dynamic Vapor Sorption (DVS) hygroscopicity; settings: for hygroscopicity classification: DVS; for hygroscopicity classification / mass increase (DVS): 25° C.; for change of crystal form after the DVS testing: after DVS cycle 0%-90%-0% RH; for mass increase (DVS): relative humidity from 0% to 80%
Experimental: About 10 mg of sample was transferred to a DVS sample pan and the weight change as the humidity of the environment at 25° C. changes was recorded. The parameters of […] were set as follows: • Equilibrium dm/dt: 0.01%/min: (minimum: 10 min; maximum: 180 min); • Drying: 0% RH, 120 min; • RH (%) gradients: 10%; • RH (%) cycle: 0%-90%-0%. • Definition on Hygroscopicity

[4] = Thermodynamic stability / solvent competition among crystal forms; settings: for thermodynamic status among anhydrate crystal forms: temperature below 50° C.
Experimental: After filtration by a needle filter, the filtrate was transferred to 1.5 mL vial. To the vial was added 5 mg of Crystal Form V and VI and the resulting suspensions were shaken for a while at the target temperatures. After centrifugation, the obtained solid was dried at 40° C. by vacuum overnight and then examined by XRPD to identify changes among different crystal forms.
With different solvents at corresponding temperatures shown in the table below, Crystal Form VIII was dissolved until saturated respectively. After filtration by a needle filter, the filtrate was transferred to 1.5 mL vial. To the vial was added 5 mg of Crystal Form III, V and IX and the resulting suspensions were shaken for a while at the target temperatures. After centrifugation, the obtained solid was dried at 40° C. by vacuum overnight and then examined by XRPD to identify changes among different crystal forms.

[5] = Water activity study (competition of crystal forms)
Experimental: Crystal Form VIII was dissolved in solvents with different water activity shown in the table below and then filtered by a needle filter to prepare a saturated solution. After the filtrate was transferred into a 1.5 mL vial, 2 mg of Crystal Form I, II, VIII, X and XI were added respectively and the resulting suspensions were shaken for a while at the target temperatures. After centrifugation, the solid obtained was air dried at ambient temperature (DMSO system was washed by MTBE) and then examined by XRPD to identify changes among different crystal forms.

[6] = Physical stability study of crystal forms (XRPD); settings: 25° C./60% RH and 40° C./75% RH (long-term and accelerated), 2 weeks
Experimental: About 10 mg of Crystal Forms II, V and VI were added into 1.5 mL vial respectively which were then placed at the conditions of 25° C./60% RH and 40° C./75% RH. The solid in the vials was examined by XRPD at the corresponding time points.

In the case of `O.O.O=C(c1cc(Cn2c(=O)[nH]c(=O)c3c(F)cccc32)ccc1F)N1CCN(c2ncccn2)CC1` [Crystal Form VIII, 5-fluoro-1-(4-fluoro-3-(4-(pyrimidin-2-yl)piperazine-1-carbonyl)benzyl)quinazoline-2,4(1H,3H)-dione dihydrate], the “Crystal Form (RH-XRPD), absorption process” value ([1]; 0% RH, equilibrium 2 hour) is reported as “XII”, the “Crystal Form (RH-XRPD), desorption process” value ([1]; 0% RH, equilibrium 2 hour) is reported as “XII” and the “Crystal Form (RH-XRPD), absorption process” value ([1]; 10% RH, equilibrium 2 hour) is reported as “XII”. The “Crystal Form (RH-XRPD), desorption process” value ([1]; 10% RH, equilibrium 2 hour) was “XII”, the “Crystal Form (RH-XRPD), absorption process” value ([1]; 20% RH, equilibrium 2 hour) was “XII” and the “Crystal Form (RH-XRPD), desorption process” value ([1]; 20% RH, equilibrium 2 hour) was “XII”. For the same molecule, the “Crystal Form (RH-XRPD), absorption process” value ([1]; 30% RH, equilibrium 2 hour) was ““VIII””, the “Crystal Form (RH-XRPD), desorption process” value ([1]; 30% RH, equilibrium 2 hour) was “VIII” and the “Crystal Form (RH-XRPD), absorption process” value ([1]; 40% RH, equilibrium 2 hour) was “VIII”. For the same molecule, the “Crystal Form (RH-XRPD), desorption process” value ([1]; 40% RH, equilibrium 2 hour) was “VIII”, the “Crystal Form (RH-XRPD), absorption process” value ([1]; 50% RH, equilibrium 2 hour) was “VIII” and the “Crystal Form (RH-XRPD), desorption process” value ([1]; 50% RH, equilibrium 2 hour) was “VIII”. The “Crystal Form (RH-XRPD), absorption process” value ([1]; 60% RH, equilibrium 0.5 hour) was “VIII”, the “Crystal Form (RH-XRPD), desorption process” value ([1]; 60% RH, equilibrium 0.5 hour) was “VIII” and the “Crystal Form (RH-XRPD), absorption process” value ([1]; 70% RH, equilibrium 0.5 hour) was “VIII”. The “Crystal Form (RH-XRPD), desorption process” value ([1]; 70% RH, equilibrium 0.5 hour) was “VIII”, the “Crystal Form (RH-XRPD), absorption process” value ([1]; 80% RH, equilibrium 0.5 hour) was “VIII” and the “Crystal Form (RH-XRPD), desorption process” value ([1]; 80% RH, equilibrium 0.5 hour) was “VIII”. For the same molecule, the “Crystal Form (RH-XRPD), absorption process” value ([1]; 90% RH, equilibrium 0.5 hour) was “VIII”, the “Crystal Form (RH-XRPD), desorption process” value ([1]; 90% RH, equilibrium 0.5 hour) was “VIII” and the “relative humidity at which the crystal form is stable” value ([1]; RH-XRPD and DVS, below it water is lost and the crystal form changes) was “no less than 40 % RH”. The “change of water content in long-term stability” value ([2]; 25° C./60% RH, up to 24 months) was “no significant change”, the “crystal form change in long-term stability” value ([2]; 25° C./60% RH, up to 24 months) was “no crystal form change” and the “long-term stability (in words)” value ([2]; 25° C./60% RH, up to 24 months) was “stable”. The Water content ([2]; 9 months) was 7.8%, the Water content ([2]; 12 months) was 7.7% and the “XRPD (crystal form)” value ([2]; 12 months) was “Form VIII”. The Water content ([2]; 18 months) was 7.6%, the Water content ([2]; 24 months) was 7.4% and the “XRPD (crystal form)” value ([2]; 24 months) was “Form VIII”. For the same molecule, the Water content ([2]; Initial) was 7.7%, the “XRPD (crystal form)” value ([2]; Initial) was “Form VIII” and the “hygroscopicity (in words)” value [3] was “high hygroscopicity”.
For `O=C(c1cc(Cn2c(=O)[nH]c(=O)c3c(F)cccc32)ccc1F)N1CCN(c2ncccn2)CC1` [Crystal Form V, 5-fluoro-1-(4-fluoro-3-(4-(pyrimidin-2-yl)piperazine-1-carbonyl)benzyl)quinazoline-2,4(1H,3H)-dione], the “relative stability in the anhydrous solvents” value ([4]; anhydrous solvents, 25° C., 50° C. and 80° C.) was “more stable than Crystal Form VI”, the “thermodynamic status among anhydrate crystal forms” value ([4]; anhydrous solvents) was “dominant” and the “crystal form change in the hydrous solvents” value [4] was “changed to Crystal Form II”. For the same molecule, the “crystal form change in a high water activity” value ([5]; Aw>0.3) was “changed to Crystal Form II”, the “crystal form change within two weeks” value [6] was “no crystal form change; also recorded: not changed” and the hygroscopicity classification [3] was “slight hygroscopic”. The “change of crystal form after the DVS testing” value [3] was “no significant change” and the “mass increase (DVS)” value [3] was “about 0.8%”.
In the case of `O=C(c1cc(Cn2c(=O)[nH]c(=O)c3c(F)cccc32)ccc1F)N1CCN(c2ncccn2)CC1` [Crystal Form IX, 5-fluoro-1-(4-fluoro-3-(4-(pyrimidin-2-yl)piperazine-1-carbonyl)benzyl)quinazoline-2,4(1H,3H)-dione], the “thermodynamic status among anhydrate crystal forms” value ([4]; anhydrous solvents) is reported as “metastable”.
With `O=C(c1cc(Cn2c(=O)[nH]c(=O)c3c(F)cccc32)ccc1F)N1CCN(c2ncccn2)CC1` [Crystal Form II, 5-fluoro-1-(4-fluoro-3-(4-(pyrimidin-2-yl)piperazine-1-carbonyl)benzyl)quinazoline-2,4(1H,3H)-dione] the “crystal form change in a low water activity” value ([5]; Aw<0.3) was “changed to Crystal Form V”, the “crystal form change within two weeks” value [6] was “no crystal form change; also recorded: not changed” and the hygroscopicity classification [3] was “hygroscopic”.
With `O=C(c1cc(Cn2c(=O)[nH]c(=O)c3c(F)cccc32)ccc1F)N1CCN(c2ncccn2)CC1` [Crystal Form III, 5-fluoro-1-(4-fluoro-3-(4-(pyrimidin-2-yl)piperazine-1-carbonyl)benzyl)quinazoline-2,4(1H,3H)-dione] the “thermodynamic status among anhydrate crystal forms” value ([4]; anhydrous solvents) was “metastable”.
With `O=C(c1cc(Cn2c(=O)[nH]c(=O)c3c(F)cccc32)ccc1F)N1CCN(c2ncccn2)CC1` [Crystal Form VI, 5-fluoro-1-(4-fluoro-3-(4-(pyrimidin-2-yl)piperazine-1-carbonyl)benzyl)quinazoline-2,4(1H,3H)-dione] the “thermodynamic status among anhydrate crystal forms” value ([4]; anhydrous solvents) was “metastable”, the “crystal form change in the hydrous solvents” value [4] was “changed to Crystal Form II” and the “crystal form change within two weeks” value [6] was “not changed”. For the same molecule, the hygroscopicity classification [3] was “slight hygroscopic”, the “change of crystal form after the DVS testing” value [3] was “no significant change” and the “mass increase (DVS)” value [3] was “about 0.5%”.
In the case of `O=C(c1cc(Cn2c(=O)[nH]c(=O)c3c(F)cccc32)ccc1F)N1CCN(c2ncccn2)CC1` [Crystal Form “VIII”, 5-fluoro-1-(4-fluoro-3-(4-(pyrimidin-2-yl)piperazine-1-carbonyl)benzyl)quinazoline-2,4(1H,3H)-dione], the “crystal form after moisture absorption” value ([1]; 5° C./75% RH, ambient temperature/75% RH, or 40° C./75% RH) is reported as “return to Crystal Form VIII”.
